Assay results as given in ChEMBL document CHEMBL2406991, “A novel series of metabotropic glutamate receptor 5 negative allosteric modulators based on a 4,5,6,7-tetrahydropyrazolo[1,5-a]pyridine core” (Bioorg Med Chem Lett, 2013).

Molecular target: Metabotropic glutamate receptor 5 (Rattus norvegicus, UniProt P31424)
Test: Negative allosteric modulation of rat mGluR5 receptor expressed in HEK293 cells assessed as intracellular calcium flux after 170 seconds by FLIPR assay
Type: functional, cell-based
Settings: hek293; call rule not given here

Chain of Metabotropic glutamate receptor 5 (P31424 whole entry): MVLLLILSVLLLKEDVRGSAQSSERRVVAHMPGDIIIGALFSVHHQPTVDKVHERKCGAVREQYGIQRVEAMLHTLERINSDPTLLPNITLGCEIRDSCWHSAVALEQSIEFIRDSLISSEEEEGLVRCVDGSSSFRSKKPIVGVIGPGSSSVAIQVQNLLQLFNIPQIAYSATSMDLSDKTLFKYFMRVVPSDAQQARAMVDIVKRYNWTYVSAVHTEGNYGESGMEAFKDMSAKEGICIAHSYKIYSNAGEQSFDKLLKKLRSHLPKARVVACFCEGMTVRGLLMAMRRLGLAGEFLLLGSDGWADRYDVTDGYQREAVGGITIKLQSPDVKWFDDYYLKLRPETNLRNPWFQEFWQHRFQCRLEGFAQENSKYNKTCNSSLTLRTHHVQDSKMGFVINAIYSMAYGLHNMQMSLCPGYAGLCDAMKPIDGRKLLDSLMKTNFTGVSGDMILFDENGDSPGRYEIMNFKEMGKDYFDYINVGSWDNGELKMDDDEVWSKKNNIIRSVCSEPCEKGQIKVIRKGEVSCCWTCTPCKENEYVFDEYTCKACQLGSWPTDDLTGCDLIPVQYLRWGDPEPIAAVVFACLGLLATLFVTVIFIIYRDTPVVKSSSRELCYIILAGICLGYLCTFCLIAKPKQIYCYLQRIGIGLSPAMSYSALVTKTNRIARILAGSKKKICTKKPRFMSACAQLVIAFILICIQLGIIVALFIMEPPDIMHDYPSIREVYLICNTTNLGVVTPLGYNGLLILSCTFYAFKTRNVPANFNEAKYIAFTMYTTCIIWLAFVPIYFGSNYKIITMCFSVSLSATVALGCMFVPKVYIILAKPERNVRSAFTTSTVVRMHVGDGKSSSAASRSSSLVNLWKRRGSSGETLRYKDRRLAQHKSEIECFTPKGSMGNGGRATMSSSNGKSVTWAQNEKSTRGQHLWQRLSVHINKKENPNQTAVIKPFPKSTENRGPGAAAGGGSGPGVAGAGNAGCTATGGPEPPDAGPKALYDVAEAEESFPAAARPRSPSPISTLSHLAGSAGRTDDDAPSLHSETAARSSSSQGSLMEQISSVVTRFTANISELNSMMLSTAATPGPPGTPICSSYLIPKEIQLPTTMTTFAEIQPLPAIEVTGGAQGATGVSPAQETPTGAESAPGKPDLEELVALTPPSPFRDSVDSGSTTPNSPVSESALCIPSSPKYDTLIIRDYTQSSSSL

Structure (SMILES) | IC50
Cc1cccc(NC(=O)c2cc3n(n2)CCCC3)n1 | Not Active
Nc1ccc(NC(=O)c2cc3n(n2)CCCC3)nc1 | Not Active
N#Cc1ccnc(NC(=O)c2cc3n(n2)CCCC3)c1 | Not Active
c1ccc(COc2cc3n(n2)CCCC3)cc1 | Not Active
COc1cccc(NC(=O)c2cc3n(n2)CCCC3)n1 | Not Active
CN(C(=O)c1cc2n(n1)CCCC2)c1ccccn1 | Not Active

Now from value to compound:

IC50 | Structure (SMILES)
Not Active | Nc1cccc(COc2cc3n(n2)CCCC3)n1
Not Active | N#Cc1cccnc1NC(=O)c1cc2n(n1)CCCC2
Not Active | Cc1cccnc1-c1cc2n(n1)CCCC2
Not Active | Cc1ccnc(NC(=O)c2cc3n(n2)CCCC3)c1
Not Active | O=C(Nc1cccc(C(F)(F)F)n1)c1cc2n(n1)CCCC2

Same assay, conditions: read-out: IC50

IC50 | Structure (SMILES)
1240 nM | Cc1cccc(-c2cc3n(n2)CCCC3)n1
769 nM | Cc1cccc(COc2cc3n(n2)CCCC3)c1
3990 nM | FC(F)(F)c1cccc(-c2cc3n(n2)CCCC3)c1
